How the values were obtained:
[1] = test system: hepatocellular carcinoma Hep3B cells; assay: SRB assay, Hep3B cells; format: cell-based; conditions: Homo sapiens, SRB growth inhibition, 48 hrs or 72 hrs
Procedure: (§1) NCI/ADR-RES cell line was obtained from DTP Human Tumor Cell Line Screen (Developmental Therapeutics Program, NCI). Other cancer cell lines (A549, Hep G2, Hep 3B, DU-145, LNCaP, and PC-3) were obtained from American Type Culture Collection (Rockville, Md.). These cancer cells were cultured in RPMI1640 medium with 10% (v/v) fetal bovine serum (FBS) and penicillin (100 units/mL)/streptomycin (100 μg/mL). Cultures were maintained in a humidified incubator at 37° C. in 5% CO2/95% air.
(§2) Cells were seeded in 96-well plates in medium with 5% FBS for 24 hrs. They were then further incubated with a vehicle (0.1% DMSO) as control or a test compound for 48 hrs or 72 hrs. The control- or compound-treated cells were fixed with 10% TCA and stained with SRB at 0.4% (w/v) in 1% acetic acid. Unbound SRB was washed off by 1% acetic acid and SRB-bound cells were solubilized with 10 mM Trizma base.
(§3) Using an absorbance (515 nm) measurement, the amounts of cellular proteins indicating cell numbers at time zero (T0), in control (C), and in the presence of the test compound (Tx) were obtained. The percentage growth was calculated at each of the compound concentration levels. Percentage growth inhibition was calculated as: 100−[(Tx−T0)/(C−T0)]×100. […]

[2] = test system: prostate cancer PC-3 cells; assay: SRB assay, PC-3 cells; format: cell-based; conditions: Homo sapiens, SRB growth inhibition, 48 hrs or 72 hrs
Procedure: as §1, §2, §3

PC-3 cells [3] = assay: FACScan flow cytometric analysis of cell cycle; format: cell-based, human; conditions: 1 μM, 3 μM, and 10 μM, 0 hr to 48 hrs
Procedure: PC-3 cells were treated with Compound 55 (at different concentrations: 1 μM, 3 μM, and 10 μM) for 0 hr, 6 hrs, 12 hrs, 18 hrs, 24 hrs, 36 hrs, and 48 hrs. After treatment, cells were washed twice with ice-cold PBS, collected by centrifugation and fixed in 70% (v/v) ethanol at 4° C. for 30 min. Then, cells were treated with 0.2 ml of a buffer (containing 0.2 M Na2HPO4 and 0.1 M citric acid buffer, pH 7.8) for 30 min, centrifuged, and then incubated in 1 mL propidium iodide (PI) staining buffer (0.1% Triton X-100, 100 μg/mL RNase A, 80 μg/mL propidium iodide in PBS) at 37° C. for 30 min. Cells were detected using a cytofluorometer, and analyzed by FACScan and CellQuest program (Becton Dickinson).

Tubulin proteins = assay: In vitro tubulin turbidity assay; format: biochemical; conditions: 37° C., 60 min
Procedure: Effects of the benzimidazole compounds on tubulin polymerization were detected using CytoDYNAMIX Screen 03 kit (Cytoskeleton, Inc., Denver, Colo.).
Tubulin proteins (>99% purity) were suspended in G-PEM buffer containing 80 mM PIPES, 2 mM MgCl2, 0.5 mM EDTA, and 1.0 mM GTP (pH 6.9) and 5% glycerol with or without a test compound. Then, the mixture was transferred to a 96-well plate and the absorbance was measured at 340 nm (37° C.) for 60 min (SpectraMAX Plus, Molecular Devices Inc., Sunnyvale, Calif.).
Level of tubulin polymerization was determined by examining turbidity of the tubulin suspension. Absorbance of the suspension at 340 nm was plotted as a function of time. Accordingly, the velocity and magnitude of tubulin polymerization were determined.

DU-145 cells = assay: SRB assay, DU-145 cells; format: cell-based; conditions: Homo sapiens, SRB growth inhibition, 48 hrs or 72 hrs
Procedure: as §1, §2, §3

PC-3 cells [4] = assay: Western blot of Bcl-2 family proteins, caspases and PARP; format: cell-based, human; conditions: 10 μM, 0 hr to 36 hrs
Procedure: Effect of benzimidazole compounds on inducing apoptosis was evaluated by testing their effect on the expression/activation of Bcl-2 family member proteins, caspases, and c-Jun N-terminal kinase (JNK). Bcl-2 family of proteins is the most important regulators of mitochondria-involved apoptotic cell death. The pro-apoptotic members, Bax, Bak and Bad, are required for the disruption of mitochondria; whereas the anti-apoptotic Bcl-2, Bcl-xL and Mcl-1 can prevent apoptosis by antagonizing the pro-apoptotic members.
PC-3 cells were incubated with a vehicle (0.1% DMSO) or Compound 55 (10 μM) for 0 hr, 6 hrs, 12 hrs, 18 hrs, 24 hrs, and 36 hrs. Then, the cells were harvested and lysed for the detection of protein expression with specific antibodies by western blot analysis. For Western blotting, the proteins (40 μg) in the lysis (including Phospho-Bcl-2, Bcl-2, Phospho-Bcl-xL, Bcl-xL, Mcl-1, Bax, Bak, Bad, GAPDH, cleaved Bad, Caspase-9, cleaved Caspase-9, Caspase-3, cleaved Caspase-3, poly-(ADP-ribose) polymerase (PARP), cleaved PARP, and GAPDH) were separated by electrophoresis in a 10 to 15% polyacrylamide gel, transferred to a nitrocellulose membrane and immuno-reacted with specific antibodies.

PC-3 cells [5] = assay: In situ tubulin assay (immunofluorescence microscopy); format: cell-based, human; conditions: 18 to 24 h
Procedure: The organization and formation of microtubule were detected by immunofluorescence microscopic examination in PC-3 cells.
PC-3 cells were seeded in 8-well chamber slides and incubated with a vehicle (0.1% DMSO, control), Compound 55 (10 μM), taxol (0.1 μM), or vincristine (0.1 μM) for 18 to 24 h. Then, the cells were fixed with 100% methanol at −20° C. for 5 min and incubated in 1% bovine serum albumin (BSA) containing 0.1% Triton X-100 at 37° C. for 30 min. Cells were then washed twice with PBS for 5 min and stained with primary antibody specific to β-tubulin at 37° C. for 1 h. Afterwards, FITC-labeled secondary antibodies were used (staining performed at 37° C. for 40 min, green fluorescence) and the protein was detected using a confocal laser microscopic system (Leica TCS SP2). The nuclei were visible by DAPI staining (1 mg/mL DAPI, blue fluorescence).

[6] = test system: P-glycoprotein (P-gp)-rich breast cancer NCI/ADR-RES cells; assay: SRB assay, NCI/ADR-RES cells; format: cell-based; conditions: Homo sapiens, SRB growth inhibition, 48 hrs or 72 hrs
Procedure: as §1, §2, §3

[7] = test system: human non-small cell lung cancer A549 cells; assay: SRB assay, A549 cells; format: cell-based; conditions: SRB growth inhibition, 48 hrs or 72 hrs
Procedure: as §1, §2, §3

PC-3 cells [8] = assay: Western blot analysis of cell-cycle regulators; format: cell-based, human; conditions: 10 μM
Procedure: (§4) PC-3 cells were incubated with a vehicle (0.1% DMSO) as control or Coumpound 55 (10 μM) for 30 min, 45 min, 60 min, and 120 min for testing Ras; or for 6 hrs, 12 hrs, 18 hrs, and 24 hrs for testing Raf-1, Phospho-MEK, MEK, and GAPDH. After the treatment, cells were washed twice with ice-cold PBS and then lysed with 100 μL lysis buffer (20 mM Tris, pH 7.5, 1 mM MgCl2, 125 mM NaCl, 1% Triton X-100, 1 mM phenylmethylsulphonylfluoride, 10 μg/mL leupeptin, 10 μg/mL aprotinin, 25 mM β-glycerophosphate, 50 mM NaF, and 100 μM sodium orthovanadate). Then, the expressions of the above proteins were detected by Western blotting.
The cell-cycle regulators were also examined by Western blot analysis. Proteins in the lysis (40 μg) were separated by electrophoresis in a 10 or 15% polyacrylamide gel, transferred to a nitrocellulose membrane and immuno-reacted with respective antibodies against Cyclin E, Cyclin A, Cyclin B1, Cdk1, Cdk2, p27, MPM2, and GAPDH.

[9] = test system: hepatocellular carcinoma HepG2 cells; assay: SRB assay, HepG2 cells; format: cell-based; conditions: Homo sapiens, SRB growth inhibition, 48 hrs or 72 hrs
Procedure: as §1, §2, §3

LNCaP cells = assay: SRB assay, LNCaP cells; format: cell-based; conditions: Homo sapiens, SRB growth inhibition, 48 hrs or 72 hrs
Procedure: as §1, §2, §3

PC-3 cells [10] = assay: Western blotting of Ras, Raf-1, MEK; format: cell-based, human; conditions: 10 μM
Procedure: as §4

## COc1cc(Cn2c(-c3ccccc3)nc3cc(N4CCCC4)ccc32)cc(OC)c1OC [Compound 55, 2-phenyl-5-(pyrrolidin-1-yl)-1-(3,4,5-trimethoxybenzyl)-1H-benzo[d]imidazole]
[1]
  IC50: 2400 nM
[2]
  IC50: 2300 nM
PC-3 cells [3]
  cell population at G2/M phase: induced an increase
  hypodiploid (sub-G1, apoptosis) population of the cell cycle: subsequent increase
Tubulin proteins
  tubulin polymerization (turbidity, absorbance at 340 nm): inhibited tubulin polymerization in a dose-dependent manner
DU-145 cells
  IC50: 2300 nM
PC-3 cells [4]
  Bcl-2 phosphorylation and degradation: induced the phosphorylation and degradation
  Bcl-xL phosphorylation and degradation: induced the phosphorylation and degradation
  Mcl-1 expression: decrease
  PARP cleavage: cleaved to produce catalytically active fragments
  caspase-3 cleavage: cleaved to produce catalytically active fragments
  caspase-9 cleavage: cleaved to produce catalytically active fragments
  cleavage of pro-apoptotic Bad: cleavage of pro-apoptotic Bad into 15-kDa fragments was unexpectedly induced
PC-3 cells [5]; 10 μM
  spindle and nuclei morphology (in situ labeling of tubulin and chromosomes): mono-polar
[6]
  IC50: 3700 nM
[7]
  IC50: 2400 nM
PC-3 cells [8]
  cyclin A expression: downregulated
  cyclin B1 expression: upregulated
  cyclin E expression: downregulated
  expression of p27 (a Cdk inhibitor): decreased
[9]
  IC50: 3300 nM
LNCaP cells
  IC50: 1700 nM
PC-3 cells [10]; 30 min to 120 min
  Ras expression: upregulated
PC-3 cells [10]; 6 hrs to 24 hrs
  MEK expression: upregulated
  Raf-1 expression: upregulated

## CC(=O)O[C@H]1C(=O)[C@@]2(C)[C@H]([C@H](OC(=O)c3ccccc3)[C@]3(O)C[C@H](OC(=O)[C@H](O)[C@@H](NC(=O)c4ccccc4)c4ccccc4)C(C)=C1C3(C)C)[C@]1(OC(C)=O)CO[C@@H]1C[C@@H]2O [taxol]
PC-3 cells [5]; 0.1 μM
  spindle and nuclei morphology (in situ labeling of tubulin and chromosomes): multi-polar spindles and multiple nuclei were formed

## CC[C@]1(O)C[C@H]2CN(CCc3c([nH]c4ccccc34)[C@@](C(=O)OC)(c3cc4c(cc3OC)N(C=O)[C@H]3[C@@](O)(C(=O)OC)[C@H](OC(C)=O)[C@]5(CC)C=CCN6CC[C@]43[C@@H]65)C2)C1 [vincristine]
PC-3 cells [5]; 0.1 μM
  spindle and nuclei morphology (in situ labeling of tubulin and chromosomes): multi-polar spindles and chromosome condensation were observed
